Measured values taken from ChEMBL document CHEMBL1136343, “Naringenin derivatives as anti-atherogenic agents” (Bioorg Med Chem Lett, 2003).

What was measured:
Assay type in all cases: functional, organism-based
Oryctolagus cuniculus [1] = assay: Total plasma cholesterol was analyzed after administration of 0.1%, wt/wt diet in high cholesterol-fed rabbits after 8 weeks
Oryctolagus cuniculus [2] = assay: Total plasma cholesterol was analyzed after administration of 0.1%, wt/wt diet in high cholesterol-fed rabbits at 0 weeks
Oryctolagus cuniculus [3] = assay: Plasma HDL cholesterol level was analyzed after administration of 0.1%, wt/wt diet in high cholesterol-fed rabbits at 0 weeks
Oryctolagus cuniculus [4] = assay: Plasma HDL cholesterol level was analyzed after administration of 0.1%, wt/wt diet in high cholesterol-fed rabbits after 8 weeks
Oryctolagus cuniculus [5] = assay: Plasma triglyceride level was analyzed after administration of 0.1%, wt/wt diet in high cholesterol-fed rabbits after 8 weeks
Oryctolagus cuniculus [6] = assay: Plasma triglyceride level was analyzed after administration of 0.1%, wt/wt diet in high cholesterol-fed rabbits after 0 weeks

| Compound | Plasma lipid level (Oryctolagus cuniculus [1]) | Plasma lipid level (Oryctolagus cuniculus [2]) | Plasma lipid level (Oryctolagus cuniculus [3]) | Plasma lipid level (Oryctolagus cuniculus [4]) | Plasma lipid level (Oryctolagus cuniculus [5]) | Plasma lipid level (Oryctolagus cuniculus [6]) |
| --- | --- | --- | --- | --- | --- | --- |
| CCCCCCCCCCCCCCCCC(=O)Oc1cc(O)c2c(c1)OC(c1ccc(O)cc1)CC2=O (configuration not stated) | 1060 mg/dL | 53 mg/dL | 34 mg/dL | 93 mg/dL | 85 mg/dL | 50 mg/dL |
| CCCCCCCC/C=C/CCCCCCCC(=O)Oc1cc(O)c2c(c1)OC(c1ccc(O)cc1)CC2=O (configuration not stated) | 1040 mg/dL | 51 mg/dL | 31 mg/dL | 78 mg/dL | 105 mg/dL | 51 mg/dL |
